Entries after “also recorded” stand apart in the source; their conditions may differ.
Tests used:
[1] = tested on: human T-cell lymphoma cell line, Jurkat; experiment: In vitro cell proliferation assay (MTS) after HAL and/or 8-MOP plus light; type: cell-based; details: for Dark toxicity (MTS assay): no light
Method: The human T-cell lymphoma cell line, Jurkat (ATCC number: TIB-152TM), growing in suspensions at passages 4-24 was used in the study. […] For subcultivation, the cells were diluted to a density of 3×10^5 cells/ml every second day. […] The cells were collected from the cultivation flasks, centrifuged at 1400 rpm for 5 min and diluted in the serum-free RPMI 1640 medium to a density of 37.5×10^5 cells/ml. Eighty microliters of cell suspension were portioned into 96 well plates. […] For the UV-A irradiation of samples, a home-made UV-A lamp (Sorensen UV-A lamp, Phillips Th […]/09) emitting light mainly in the region 340-410 nm was used (FIG. 1). For the blue light illumination of samples, the light from a bank of four fluorescent tubes (model 3026, Applied Photophysics, London, United Kingdom) emitting light mainly in the region 410-500 nm with a maximum around 440 nm was used (FIG. 1). […] Twenty four hours after irradiation, 20 μl of MTS (Promega Corporation, Madison, Wis.) was added to each well. Absorbance at 492 nm was measured after one hour incubation at 37° C. by means of a well plate reader (Multiskan Ex, Labsystems, Finland).

Jurkat cells [2] = experiment: In vitro long term cell survival assay in methylcellulose-based semisolid medium; design: species or system human
Method: The cells were collected from the cultivation flasks, centrifuged at 1400 rpm for 5 min and diluted in the serum-free RPMI 1640 medium to a density of 37.5×10^5 cells/ml. Eighty microliters of cell suspension were portioned into 96 well plates. […] For the UV-A irradiation of samples, a home-made UV-A lamp (Sorensen UV-A lamp, Phillips Th […]/09) emitting light mainly in the region 340-410 nm was used (FIG. 1). For the blue light illumination of samples, the light from a bank of four fluorescent tubes (model 3026, Applied Photophysics, London, United Kingdom) emitting light mainly in the region 410-500 nm with a maximum around 440 nm was used (FIG. 1). Methylcellulose-based medium human MethoCult® with recombinant cytokines, (H4034, StemCell Technologies, France) was used for survival assay. […] The samples were treated according to the manufacturer's instructions and suspensions were transferred into 35 mm Petri dishes. They were incubated at 37° C. in a humidified incubator with 5% CO2.

Jurkat cells [3] = experiment: Assessment of apoptotic cells by fluorescence microscopy (Hoechst 33342 / PI); type: cell-based, human
Method: The cells were collected from the cultivation flasks, centrifuged at 1400 rpm for 5 min and diluted in the serum-free RPMI 1640 medium to a density of 37.5×10^5 cells/ml. Eighty microliters of cell suspension were portioned into 96 well plates. […] For the UV-A irradiation of samples, a home-made UV-A lamp (Sorensen UV-A lamp, Phillips Th […]/09) emitting light mainly in the region 340-410 nm was used (FIG. 1). For the blue light illumination of samples, the light from a bank of four fluorescent tubes (model 3026, Applied Photophysics, London, United Kingdom) emitting light mainly in the region 410-500 nm with a maximum around 440 nm was used (FIG. 1). Apoptotic cells were identified by fluorescence microscopy based on nuclear morphology after staining with 4.0 μg/mI Hoechst 33342 (Sigma, St. Louis, Mo.) at 37° C. for 10 min. This assay was verified in our previous experiments. […] For PI fluorescence detection, the filter combination consisted of a 540/25 nm excitation filter, a 565 nm beam splitter, and a 605/55 nm band-pass emission filter. Fluorescence images were captured by a highly light sensitive thermo-electrically cooled charge-coupled device camera […] (Hamamatsu, Japan).

rats = details: cited from earlier work
humans = details: oral ALA; normally resolves after 48 hours; cited from earlier work
mice = details: cited from earlier work
[4] = tested on: human leukocytes from GvHD or CTLC patients; experiment: 5-ALA dark toxicity on human leukocytes; type: cell-based; details: 10 mM 5-ALA, 17-24 hours, no light
Method: The general safety of 5-ALA in absence of light-mediated activation (dark toxicity) was next evaluated. Blood samples from 10 GvHD or CTLC patients were treated with 10 mM 5-ALA at 37° C. in a 5% CO2 humidified incubator overnight (17-24 hours). Buffy coat samples from patients were directly harvested from the Therakos Photopheresis System during the standard photopheresis treatment. The cells incubated with the culture medium containing no 5-ALA were also included as a control in all individuals. The leukocytes were then labelled with antibodies for flow cytometry analysis of various subpopulations. The antibodies used were: CD45 PerCP-Cyanine5.5 for leukocytes, CD4 FITC for T helper cells, CD8 FITC for T cytotoxic cells and CD19 FITC for B-cells. The cells were also labelled with Fixable Viability Dye eFluor 450 for dead cells and Annexin V for apoptotic/dead cells. The different subpopulations of leukocytes were gated out and analyzed for cell viability. The cells that were negative for both the Fixable Viability Dye eFluor 450 and Annexin V were considered as viable cells.

[5] = tested on: Jurkat human T-cell lymphoma cells; experiment: ALA/UVA killing of Jurkat cells (PI staining); type: cell-based; details: 1 mM ALA for 1 hour, 10% foetal bovine serum, then UVA light exposure
Method: Optimization of experimental conditions for ALA-ECP was performed in Jurkat cells, varying ALA concentration (1 to 5 mM) and treatment time (1 to 4 hours) in the presence of 10% foetal bovine serum. The cells were then exposed to UVA for 10 min using an UV-A lamp with almost identical emission spectra to those of the UV-A lamp used in the existing commercial Therakos photopheresis system. The cell survival after the ALA/UVA treatment was measured by fluorescence microscopy with propidium iodide (PI) staining.

[6] = tested on: CD8+ T lymphocytes collected from a GvHD patient; experiment: Ex vivo ALA-ECP killing of patient CD8+ T lymphocytes (flow cytometry); type: cell-based, human; details: particularly at a low light dose, 5-min light illumination
Method: (§1) A suitable dose and incubation time of ALA was used in leukocyte samples collected from ECP patients. The dark toxicity of ALA at the concentration in question was evaluated, followed by the ALA/UVA-mediated killing efficiency before studies on the mechanism of its action (apoptosis/necrosis). The lymphocytes from patients were incubated with ALA under the optimized experimental conditions before exposure to the UVA lamp in the Therakos Photopheresis System at the same light dose as used in the ECP treatment. The cell survival of ALA dark toxicity, ALA/UVA-mediated killing efficiency and apoptosis/necrosis were measured with flow cytometry using combined labelling of CD4^+ or CD8^+ with Annexin V/PI staining.
(§2) The killing effects of 5-ALA (a porphyrin precursor) plus the UVA light irradiation on CD4^+/CD8^+ T lymphocytes collected from a Graft versus Host Disease (GvHD) patient who went to a standard photopheresis treatment was evaluated. The cells were exposed to ALA+UVA in the standard photopheresis machine, and percentage survival evaluated at various timepoints between 1 h and 20 h. The 8-MOP plus UVA used for the standard photopheresis was also included for comparison. The cell survival was measured with flow cytometry using a combined staining of CD4/CD8 antibody, Annexin-V and eFluor450.

[7] = tested on: Proliferative (transformed or activated) T-cells; experiment: ALA-induced PpIX production in proliferative versus resting T-cells; type: cell-based
[8] = tested on: CD4+ T lymphocytes collected from a GvHD patient; experiment: Ex vivo ALA-ECP killing of patient CD4+ T lymphocytes (flow cytometry); type: cell-based, human; details: particularly at a low light dose, 5-min light illumination
Method: as §1, §2

With `CCCCCCOC(=O)CCC(=O)CN` [HAL, hexyl 5-amino-4-oxopentanoate] the “Cell proliferation, evaluated by MTS assay” value ([1]; HAL 4 h, 10 or 20 s blue light or 5 or 10 min UV-A) was “decrease in a concentration-dependent manner”, the “Dark toxicity (MTS assay)” value ([1]; HAL up to 11.00 μM) was “no indication for dark toxicities” and the “HAL concentration sufficient to decrease cell proliferation to minimum after light exposure” value ([1]; UV-A 5 or 10 min) was 5.00 µM. For the same compound, the “Number of colonies (high cell density areas formed in semisolid medium 2 weeks after treatment)” value (“Number of colonies” for short) (Jurkat cells [2]; 5.00 μM HAL/10 min UV-A) was 0, the “Number of colonies” value (Jurkat cells [2]; 7.40 μM HAL/10 s blue light) was 4.5 ± 5.6 and the “number of experiments when colonies were formed/total number of experiments” value (Jurkat cells [2]; 7.40 μM HAL/10 s blue light) was 4/6. The “Cell appearance 20 hours after treatment” value (Jurkat cells [3]; 1.55 μM HAL, 10 min UV-A, sample to sample variations) was “mostly apoptotic + some alive, or; also recorded: mostly necrotic + some apoptotic*”, the “apoptotic bodies, twenty hours following treatment” value (Jurkat cells [3]; 5.00 μM HAL and 10 min UV-A irradiation) was “no apoptotic bodies could be seen” and the “Cell appearance 20 hours after treatment” value (Jurkat cells [3]; 5.00 μM HAL, 10 s UV-A) was “apoptotic + alive (similar”. For the same compound, the “Cell appearance 20 hours after treatment” value (Jurkat cells [3]; 5.00 μM HAL, 10 s blue light) was “mostly apoptotic + some alive” and the “Cell appearance 20 hours after treatment” value (Jurkat cells [3]; 5.00 μM HAL, 10 min UV-A) was “only necrotic, no apoptotic”.
In the case of `NCC(=O)CCC(=O)O` [ALA, 5-aminolevulinic acid], the “toxic effects after single intravenous injection” value (rats; rat, in vivo, iv, 250 mg/kg) is given as “No observable toxic effects”, the LD50 (rats; rats, single dose of oral or intraperitoneal administration) is given as 2,500 mg/kg body weight and the “most common side effects” value (humans) is given as “nausea, vomiting and a transient rise in liver enzymes”. For the same compound, the LD50 (mice; mice, single dose of oral or intraperitoneal administration) was 2,500 mg/kg body weight, the “toxic effects after single intravenous injection” value (mice; mouse, in vivo, iv, 500 mg/kg) was “No observable toxic effects” and the “dark cytotoxic effect on leukocytes” value [4] was “no significant dark cytotoxic effect”. The Jurkat cells killed [5] was “More than 95%”, the “killing of CD8+ T-cells, ALA plus UVA versus 8-MOP plus UVA” value [6] was “much more effectively than 8-MOP plus UVA” and the “ALA-induced PpIX production, proliferative versus normal resting T-cells” value [7] was “about 15 fold”. The “killing of CD4+ T-cells, ALA plus UVA versus 8-MOP plus UVA” value [8] was “much more effectively than 8-MOP plus UVA”.
For `COc1c2occc2cc2ccc(=O)oc12` [8-MOP, 8-methoxypsoralen], the “ability to sensitise the cells to photoinactivation when UV-A lamp spectrum shifted by few nm” value ([1]; 1.00 μM 8-MOP) was “significantly increased”, the “Effect of presence of 8-MOP on cell proliferation during HAL-based PDT with blue light” value ([1]; 1.00 μM 8-MOP, blue light) was “did not affect cell proliferation” and the “Dark toxicity (MTS assay)” value ([1]; 8-MOP up to 1.00 μM) was “no indication for dark toxicities”. The “cell proliferation measured by MTS assay with increasing 8-MOP concentration” value ([1]; UV-A 5 and 10 min, absence of HAL) was “decreasing cell proliferation”, the “Number of colonies” value (Jurkat cells [2]; 1.00 μM MOP/10 min UV-A) was 0.8 ± 2.0 and the “number of experiments when colonies were formed/total number of experiments” value (Jurkat cells [2]; 1.00 μM MOP/10 min UV-A) was 1/6. The “mode of cell death, twenty hours following treatment” value (Jurkat cells [3]; 1.00 μM 8-MOP followed by UV-A) was “almost all the cells seemed to die by apoptosis”.
